Results taken from paper PMC2362650, “Phase I and pharmacokinetic study of the topoisomerase II catalytic inhibitor fostriecin” (British Journal of Cancer, 1999).
Values joined by “and” are separate entries in the source; they are usually repeats but may differ in a detail not shown here. Identical values can stand only once. Like-named read-outs stand apart in the source and are kept apart here.

Assay: Plasma and urine pharmacokinetics (HPLC-UV) in patients after 60-min IV infusion
Assay type: in vivo, human
Details: for half-life / Cmax / AUC / MRT: human, plasma, intravenous; for Cmax: observed value
Excerpt: Fostriecin (CI-920) is a topoisomerase (topo) II catalytic activity inhibitor (Boritzki et al, 1988) (Figure 1). This novel class of topo II-targeting drugs is considered of potential value for treatment of patients with tumours resistant to classic topo II poisons, including anthracyclines and podophyllotoxins (Cummings and Smyth, 1993). The nuclear enzyme topo II is essential for the regulation of DNA conformation (reviewed in Osheroff et al, 1991). Central in its action is the formation of a complex with DNA. Stabilization of this complex by topo II poisons induces DNA damage and cell death (Froelich-Ammon and Osheroff, 1995). Decreased complex formation due to decreased topo II levels is considered to be an important mechanism of tumour-resistance to topo II poisons (Beck and Danks, 1991). The topo II catalytic inhibitor fostriecin is expected to have increased activity against tumour cells with low topo II levels and this was confirmed in in vitro studies (De Jong et al, 1991). […] Because of increased toxi- city of fostriecin in dogs compared to mice, a dose below one-third of the one-tenth mouse equivalent LD10, 2 mg m-2 day-1, was chosen as starting dose in humans (Clinical Brochure Fostriecin, 1991). […] We also performed an analysis of the human pharmacokinetics of fostriecin and ex vivo experiments to investigate if the plasma drug concentrations achieved were sufficient to inhibit a tenipo- side-resistant tumour cell line. The maximum tolerated dose (MTD) of fostriecin could not be established because drug supply was stopped prematurely. However, results of this study may provide a basis for continued clinical development of this agent. PATIENTS AND METHODS Patient selection, drug administration and evaluation Patient eligibility criteria were: histologically confirmed diagnosis of a solid tumour, no longer amenable to established forms of treatment; age 18-75 years; Eastern Cooperative Oncology Group (ECOG) performance status 2; life expectancy 12 weeks; no Phase I and pharmacokinetic study of the topoisomerase II catalytic inhibitor fostriecin RS de Jong1, NH Mulder1, DRA Uges2, DTh Sleijfer1, FJP Hoppener4, HJM Groen3, PHB Willemse1, WTA van der Graaf1 and EGE de Vries1 Departments of 1Medical Oncology, 2Pharmacy and Toxicology, and 3Pulmonary Diseases, University Hospital Groningen, The Netherlands; 4EORTC New Drug Development Office, Amsterdam, The Netherlands Summary We conducted a phase I and pharmacokinetic study of the topoisomerase II catalytic inhibitor fostriecin. Fostriecin was administered intravenously over 60 min on days 1-5 at 4-week intervals. Dose was escalated from 2 mg m-2 day-1 to 20 mg m-2 day-1 in 20 patients. Drug pharmacokinetics was analysed with high performance liquid chromatography with UV-detection. Plasma collected during drug administration was tested in vitro for growth inhibition of a teniposide-resistant small-cell lung cancer (SCLC) cell line. The predominant toxicities were elevated liver transaminases (maximum common toxicity criteria (CTC) grade 4) and serum creatinine (maximum CTC grade 2). […] Duration of elevated alanine-amino transferase (ALT) was dose-limiting in one patient at 20 mg m-2. Other frequent toxicities were grade 1-2 nausea/vomiting, fever and mild fatigue. […] A metabolite, most probably dephosphorylated fostriecin, was detected in plasma and urine. […] However, further escalation seems possible and is warranted to achieve potentially effective drug levels. Fostriecin has a short plasma half-life and longer duration of infusion should be considered. […]

[1] = patient no. 1, 2 mg m-2, day 1 course 1, one-compartment model
[2] = patient no. 3, 2 mg m-2, day 1 course 1, one-compartment model
[3] = patient no. 4, 2 mg m-2, day 1 course 1, one-compartment model
[4] = patient no. 5, 4 mg m-2, day 1 course 1, one-compartment model
[5] = patient no. 6, 4 mg m-2, day 1 course 1, one-compartment model
[6] = patient no. 7, 4 mg m-2, day 1 course 1, two-compartment model
[7] = patient no. 11, 6.6 mg m-2, day 1 course 1, two-compartment model
[8] = patient no. 12, 6.6 mg m-2, day 1 course 1, two-compartment model
[9] = patient no. 13, 10 mg m-2, day 1 course 1, two-compartment model
[10] = patient no. 15, 10 mg m-2, day 1 course 1, two-compartment model
[11] = patient no. 16, 12.2 mg m-2, day 1 course 1, two-compartment model
[12] = patient no. 18, 12.2 mg m-2, day 1 course 1, two-compartment model
[13] = patient no. 19, 20 mg m-2, sampling on day 1 of course 2, two-compartment model
[14] = patient no. 20, 20 mg m-2, day 1 course 1, two-compartment model

For `C[C@@](O)(/C=C/[C@H]1CC=CC(=O)O1)[C@@H](C[C@@H](O)\C=C/C=C\C=C\CO)OP(=O)(O)O` [fostriecin], the half-life (12.2 mg, patient no. 16, 12.2 mg m-2, day 1 course 1, two-compartment model, read-out: t1/2 (terminal) (converted)) was 70.2 min, the Cmax (12.2 mg, patient no. 18, 12.2 mg m-2, day 1 course 1) was 2790 ng/mL and the AUC (12.2 mg, patient no. 18, 12.2 mg m-2, day 1 course 1, two-compartment model) was 5320 ng·h/mL. For the same compound, the MRT (12.2 mg, patient no. 18, 12.2 mg m-2, day 1 course 1, two-compartment model, read-out: MRT) was 217 min, the half-life (12.2 mg, patient no. 18, 12.2 mg m-2, day 1 course 1, two-compartment model, read-out: t1/2 (initial) (converted)) was 27.6 min and the half-life (12.2 mg, patient no. 18, 12.2 mg m-2, day 1 course 1, two-compartment model, read-out: t1/2 (terminal) (converted)) was 306 min. For the same compound, the Cmax (20 mg, patient no. 19, 20 mg m-2, sampling on day 1 of course 2) was 3850 ng/mL, the AUC (20 mg, patient no. 19, 20 mg m-2, sampling on day 1 of course 2, two-compartment model) was 4450 ng·h/mL and the MRT (20 mg, patient no. 19, 20 mg m-2, sampling on day 1 of course 2, two-compartment model, read-out: MRT) was 22.8 min. It also gave a half-life (20 mg, patient no. 19, 20 mg m-2, sampling on day 1 of course 2, two-compartment model, read-out: t1/2 (initial) (converted)) of 1.8 min, a half-life (20 mg, patient no. 19, 20 mg m-2, sampling on day 1 of course 2, two-compartment model, read-out: t1/2 (terminal) (converted)) of 32.4 min and a Cmax (20 mg, patient no. 20, 20 mg m-2, day 1 course 1) of 6350 ng/mL. It also gave an AUC (20 mg, patient no. 20, 20 mg m-2, day 1 course 1, two-compartment model) of 9960 ng·h/mL, an MRT (20 mg, patient no. 20, 20 mg m-2, day 1 course 1, two-compartment model, read-out: MRT) of 49.8 min and a half-life (20 mg, patient no. 20, 20 mg m-2, day 1 course 1, two-compartment model, read-out: t1/2 (initial) (converted)) of 0.6 min. It also gave a half-life (20 mg, patient no. 20, 20 mg m-2, day 1 course 1, two-compartment model, read-out: t1/2 (terminal) (converted)) of 45.6 min, a half-life (two-compartment model, 95% CI 0-0.76 h, read-out: mean plasma half-life (initial) (converted)) of 21.6 min and an MRT (two-compartment model, 95% CI 0.41-1.97 h, read-out: mean residence time (MRT)) of 71.4 min. The half-life (two-compartment model, 95% CI 0.41-2.61 h, read-out: mean plasma half-life (terminal) (converted)) was 90.6 min, the “renal excretion as share of drug elimination” value (mean, patient nos 12-20, 95% CI 10-17.6%) was 14.6% and 15% and the Cl [1] was 5.14 l h-1 m-2. It also gave a Vd [1] of 4.44 l m-2, a Cl [2] of 2.40 l h-1 m-2 and a Vd [2] of 1.86 l m-2. For the same compound, the Cl [3] was 4.11 l h-1 m-2, the Vd [3] was 2.10 l m-2 and the Cl [4] was 2.81 l h-1 m-2. It also gave a Vd [4] of 2.03 l m-2, a Cl [5] of 3.05 l h-1 m-2 and a Vd [5] of 2.03 l m-2. For the same compound, the Cl [6] was 2.31 l h-1 m-2, the Vd [6] was 6.76 l m-2 and the Cl [7] was 4.06 l h-1 m-2. The Vd [7] was 2.75 l m-2, the Cl [8] was 2.63 l h-1 m-2 and the Vd [8] was 4.64 l m-2. The Cl [9] was 2.97 l h-1 m-2, the Vd [9] was 3.98 l m-2 and the Cl [10] was 2.66 l h-1 m-2. For the same compound, the Vd [10] was 5.34 l m-2, the Cl [11] was 2.84 l h-1 m-2 and the Vd [11] was 4.80 l m-2. For the same compound, the Cl [12] was 2.32 l h-1 m-2, the Vd [12] was 17.09 l m-2 and the Cl [13] was 4.52 l h-1 m-2. It also gave a Vd [13] of 3.39 l m-2, a Cl [14] of 1.83 l h-1 m-2 and a Vd [14] of 2.01 l m-2. The “mean volume of distribution (Vd)” value (two-compartment model, 95% CI 2.16-9.11) was 5.64 l m-2, the “mean Cl (apparent total body clearance)” value (two-compartment model, 95% CI 2.24-3.57) was 2.90 l h-1 m-2 and the “mean Cl (apparent total body clearance)” value (unit conversion of 2.90 l h-1 m-2) was 48.3 ml min-1 m-2.
